Test results taken from US8486962B2, “Antifungal agents” (F2G Ltd., priority 2005, dated 2013).
In brackets after ≈: the same amount, converted by molar mass.

Legend:
Assay type in all cases: cell-based
[1] = test system: Aspergillus fumigatus AF293; assay: MIC, YAG medium, Aspergillus fumigatus AF293; settings: YAG medium; for MIC: Aspergillus fumigatus, AF293, read-out: MIC A Fum. 293
Protocol: (§1) Measurement of Minimum Inhibitory Concentrations (MICs)
(§2) Between 1 and 5 mgs of compound were accurately weighed out into a sterile Eppendorf tube. The compound was dissolved in DMSO to give a solution containing 5 mg/ml. Tubes were stored at −20° C. until required.
(§3) On the day of testing thawed solutions were vortex mixed to ensure homogeneity. 30 μl of solution was removed and added to 570 μl of sterile water in a separate sterile Eppendorf. The thoroughly mixed solution was used to prepare a series of doubling dilutions in water, in a deep well plate. Eleven replicate plates were prepared using a Minitrak by aspirating 20 μl from each well into eleven clear polystyrene 96 well plates.
(§4) Spores of Aspergillus spp (Aspergillus fumigatus, Aspergillus terreus, Aspergillus niger and Aspergillus flavus) were harvested from cultures grown on Sabarauds agar for 5 days, and resuspended in PBS/Tween 80 to approx 1×10^7 cfu/ml Other filamentous fungi (Fusarium solani, Scedosporium spp., Trichophyton spp., Absidia corymbifera), were grown on Sabarauds agar for 2-10 days and spores/hyphae resuspended in PBS/Tween to give approx 1×10^7 cfU/ml. Candida species (Candida albicans, Candida glabrata, Candida krusei, Candida parapsilosis and Candida tropicalis) were grown on Sabarauds agar, cells were harvested from the agar using a sterile loop and resuspended in PBS/Tween 80 to approx 1×10^6 cfu/ml. Each organism suspension was diluted in RPMI medium, containing 2% glucose and 0.135M MOPS buffer (pH7.0) to 2×10^4 cfu/ml for Aspergillus spp and other filamentous fungi and 2×10^3 cfu/ml for yeast. 80 μl of an organism suspension was added to each well of the plate containing drug dilutions.
(§5) This produced MIC plates with a drug range 50-0.05 mg/L and organism inocula of 1-2×10^4 cfu/ml for Aspergillus spp and other filamentous fungi and 1-2×10^3 cfu/ml for yeasts. All plates were incubated for 24-48 hrs at 35° C. Growth was assessed by monitoring the optical density at 485 nm for each well. The MIC of a compound is the lowest drug concentration that inhibits growth of an organism by >80% compared with a drug free control. MICs are recorded as mg/L. Other growth media can be used for susceptibility testing, and the activity of the described compounds can also be assessed in a medium comprising, 1% glucose, 1% ammonium chloride and 0.5% yeast extract (YAG medium). To perform MIC tests in this medium, dilutions of compounds are prepared in microtitre plates as described above. Fungal strains to be tested are grown and harvested in an identical manner to that described above, each organism suspension is then diluted in YAG medium to 2×10^4 cfu/ml for Aspergillus spp and other filamentous fungi and 2×10^3 cfu/ml for yeast. 80 μl of an organism suspension was added to each well of the plate containing drug dilutions. This produced MIC plates with a drug range 50-0.05 mg/L and organism inocula of 1-2×10^4 cfu/ml for Aspergillus spp and other filamentous fungi and 1-2×10^3 cfu/ml for yeasts. All plates were incubated for 24 hrs at 35° C. Growth was assessed by monitoring the optical density at 485 nm for each well. The MIC of a compound is the lowest drug concentration that inhibits growth of an organism by >70% compared with a drug free control. MICs are recorded as mg/L. In cases where the MIC of an organism is […]0.05 mg/L the MIC is repeated using a concentration range of 0.5-0.0005 mg/L. MIC tests in YAG medium have more clear-cut endpoints and have slightly lower MICS than those performed in RPMI medium.
(§6) The following organisms were tested: Aspergillus fumigatus AF293 and Aspergillus fumigatus AF210, Aspergillus niger, Aspergillus terreus, Aspergillus favus, Candida albicans, Candida krusei, Candida tropicalis, Candida glabrata, Candida parapsilosis, Trichophyton rubrum, Trichophyton mentagrophytes, Scedosporium prolificans, Scedosporium apiospermum, Absidia corymbifera, Fusarium solani.

Aspergillus flavus = assay: MIC, YAG medium, Aspergillus flavus; settings: YAG medium; for MIC: Aspergillus flavus, read-out: MIC A Flavus 01
Protocol: as §1, §2, §3, §4, §5, §6

Aspergillus terreus = assay: MIC, YAG medium, Aspergillus terreus; settings: YAG medium; for MIC: Aspergillus terreus, read-out: MIC A Terreus 4
Protocol: as §1, §2, §3, §4, §5, §6

[2] = test system: Aspergillus fumigatus AF210; assay: MIC, YAG medium, Aspergillus fumigatus AF210; settings: YAG medium; for MIC: Aspergillus fumigatus, AF210, read-out: MIC A Fum. 210
Protocol: as §1, §2, §3, §4, §5, §6

Aspergillus niger = assay: MIC, YAG medium, Aspergillus niger; settings: YAG medium; for MIC: Aspergillus niger, read-out: MIC A Niger 1
Protocol: as §1, §2, §3, §4, §5, §6

CC(C)(C#N)c1ccc(NC(=O)C(=O)c2c(-c3cccnc3)cc3ccccn23)cc1 [Example 225, N-[4-(Cyano-dimethyl-methyl)-phenyl]-2-oxo-2-(2-pyridin-3-yl-indolizin-3-yl)-acetamide]
MIC [1]: 3.1 µg/mL (≈ 7.59 µM)
MIC (Aspergillus flavus): 0.1 µg/mL (≈ 0.245 µM)
MIC (Aspergillus terreus): 0.1 µg/mL (≈ 0.245 µM)
MIC [2]: 3.1 µg/mL (≈ 7.59 µM)
MIC (Aspergillus niger): 3.1 µg/mL (≈ 7.59 µM)

COc1ccc2cc(-c3ccccc3)c(C(=O)C(=O)Nc3ccc(N(C)C)cc3)n2c1 [Example 242, N-(4-Dimethylamino-phenyl)-2-(6-methoxy-2-phenyl-indolizin-3-yl)-2-oxo-acetamide]
MIC [1]: 0.8 µg/mL (≈ 1.93 µM)
MIC (Aspergillus flavus): 0.05 µg/mL (≈ 0.121 µM)
MIC (Aspergillus terreus): 0.1 µg/mL (≈ 0.242 µM)
MIC [2]: 0.8 µg/mL (≈ 1.93 µM)
MIC (Aspergillus niger): 0.4 µg/mL (≈ 0.967 µM)

CON=C(C(=O)Nc1ccc(OC)cc1)c1c(-c2ccccc2)cc2ccccn12 (mixture of isomers) [Example 298, 2-[(E/Z)-Methoxyimino]-N-(4-methoxy-phenyl)-2-(2-phenyl-indolizin-3-yl)-acetamide]
MIC A Fum. 293 [1]: 0.8 µg/mL
MIC A Flavus 01 (Aspergillus flavus): 0.1 µg/mL
MIC A Terreus 4 (Aspergillus terreus): 0.2 µg/mL
MIC A Fum. 210 [2]: 0.8 µg/mL
MIC A Niger 1 (Aspergillus niger): 0.2 µg/mL

O=C(Nc1ccncc1)C(=O)c1c(-c2ccccc2)cc2ccccn12 [Example 158, 2-Oxo-2-(2-phenyl-indolizin-3-yl)-N-pyridin-4-yl-acetamide]
MIC [1]: > 50 µg/mL
MIC (Aspergillus flavus): > 50 µg/mL
MIC (Aspergillus terreus): > 50 µg/mL
MIC [2]: > 50 µg/mL
MIC (Aspergillus niger): 0.4 µg/mL (≈ 1.17 µM)

CN(C(=O)C(=O)c1c(-c2ccccc2)cc2ccccn12)c1ccccc1 [Example 186, N-Methyl-2-oxo-N-phenyl-2-(2-phenyl-indolizin-3-yl)-acetamide]
MIC [1]: 12.5 µg/mL (≈ 35.3 µM)
MIC (Aspergillus flavus): 25 µg/mL (≈ 70.5 µM)
MIC (Aspergillus terreus): 12.5 µg/mL (≈ 35.3 µM)
MIC [2]: 3.1 µg/mL (≈ 8.75 µM)
MIC (Aspergillus niger): 3.1 µg/mL (≈ 8.75 µM)

COC(=O)c1ccc(OC(=O)C(=O)c2c(-c3ccccc3)cc3ccccn23)cc1 [Example 177, 4-[2-Oxo-2-(2-phenyl-indolizin-3-yl)-acetoxy]-benzoic acid methyl ester]
MIC [1]: 50 µg/mL (≈ 125 µM)
MIC (Aspergillus flavus): > 50 µg/mL
MIC (Aspergillus terreus): 6.25 µg/mL (≈ 15.6 µM)
MIC [2]: > 50 µg/mL
MIC (Aspergillus niger): 6.25 µg/mL (≈ 15.6 µM)

O=C(C(=O)N1CCCCC1)c1c(-c2ccccc2)cc2ccccn12 [Example 184, 1-(2-Phenyl-indolizin-3-yl)-2-piperidin-1-yl-ethane-1,2-dione]
MIC [1]: 25 µg/mL (≈ 75.2 µM)
MIC (Aspergillus flavus): 50 µg/mL (≈ 150 µM)
MIC (Aspergillus terreus): 6.25 µg/mL (≈ 18.8 µM)
MIC [2]: 6.25 µg/mL (≈ 18.8 µM)
MIC (Aspergillus niger): 0.8 µg/mL (≈ 2.41 µM)

O=C(Nc1cccnc1)C(=O)c1c(-c2ccccc2)cc2ccccn12 [Example 152, 2-Oxo-2-(2-phenyl-indolizin-3-yl)-N-pyridin-3-yl-acetamide]
MIC [1]: 12.5 µg/mL (≈ 36.6 µM)
MIC (Aspergillus flavus): 1.6 µg/mL (≈ 4.69 µM)
MIC (Aspergillus terreus): 0.8 µg/mL (≈ 2.34 µM)
MIC [2]: 25 µg/mL (≈ 73.2 µM)
MIC (Aspergillus niger): 0.4 µg/mL (≈ 1.17 µM)

O=C(Nc1ccc(C(=O)O)cc1)C(=O)c1c(-c2ccccc2)cc2ccccn12 [Example 159, 4-[2-Oxo-2-(2-phenyl-indolizin-3-yl)-acetylamino]-benzoic acid]
MIC [1]: > 50 µg/mL
MIC (Aspergillus flavus): > 50 µg/mL
MIC (Aspergillus terreus): 50 µg/mL (≈ 130 µM)
MIC [2]: > 50 µg/mL
MIC (Aspergillus niger): 1.6 µg/mL (≈ 4.16 µM)

COc1ccc2cc(-c3ccccc3)c(C(=O)C(=O)Nc3ccc(OC)nc3)n2c1 [Example 195, 2-(6-Methoxy-2-phenyl-indolizin-3-yl)-N-(6-methoxy-pyridin-3-yl)-2-oxo-acetamide]
MIC [1]: 6.25 µg/mL (≈ 15.6 µM)
MIC (Aspergillus flavus): 0.4 µg/mL (≈ 0.996 µM)
MIC (Aspergillus terreus): 0.4 µg/mL (≈ 0.996 µM)
MIC [2]: 6.25 µg/mL (≈ 15.6 µM)
MIC (Aspergillus niger): 1.6 µg/mL (≈ 3.99 µM)

O=C(Nc1ccccc1F)C(=O)c1c(-c2cccnc2)cc2ccccn12 [Example 211, N-(2-Fluoro-phenyl)-2-oxo-2-(2-pyridin-3-yl-indolizin-3-yl)-acetamide]
MIC [1]: 6.25 µg/mL (≈ 17.4 µM)
MIC (Aspergillus flavus): 0.4 µg/mL (≈ 1.11 µM)
MIC (Aspergillus terreus): 0.2 µg/mL (≈ 0.557 µM)
MIC [2]: 6.25 µg/mL (≈ 17.4 µM)
MIC (Aspergillus niger): 1.6 µg/mL (≈ 4.45 µM)
